# Laboratory results taken from paper PMC10313921, “A living ex vivo platform for functional, personalized brain cancer diagnosis” (Cell Reports Medicine, 2023).
# Columns and labels:
# [1] = system: MG-I patient tumor tissue (WHO I meningioma); assay: Drug screening of uncultured patient tumor tissue MG-I on OBSCs; assay type: cell-based; conditions: Homo sapiens, dose required to kill 90% of the tumor
# Procedure: (§1) Tumor cells were seeded onto OBSCs 2h after slicing as described above. One day after tumor seeding, six concentrations of each drug were diluted in the media underneath each culture insert, or XRad was applied using an X-Rad 320 Precision X-ray machine (n = 4 tumor foci per concentration; n ≥ 24 tumor foci per drug per cell line). Three days after treatment, the bioluminescence of live tumor cells was measured using an AMI optical imager (Spectral Instruments) and dose-response curves were generated. Tumor survival was normalized to day one tumor fluorescence and compared to an untreated control group.
# (§2) To engraft onto OBSCs, the cryopreserved/thawed or fresh brain tumor tissue was filtered through a 100 μm cell strainer. […] The viability of the patient tissue was measured by an AMI optical imaging system with the addition of 1.5 mg/mL luciferin underneath the culture insert. […]
# (§3) For DSS parameters 1–6, therapeutic windows were calculated by comparing OBSC toxicity and tumor response at the doses where tumor kill passed through the DSS parameter (Table S1 and S3). For DSS parameter 7, the therapeutic window was calculated by comparing the slopes through the tumor EC50 and the OBSC tox EC50. For DSS parameter 8, the therapeutic window was calculated by comparing the areas under tumor kill and OBSC tox curves. […]
# [2] = system: 7 cell lines (MB231Br, LN229, U373WT, U373KO, GBM8, MS21, PDIPG); assay: Drug screening on OBSCs, summary over the panel of seven tumor lines; assay type: cell-based, human; conditions: for response / killing over the 7 cell lines: number of lines responding
# Procedure: Tumor cells (0.17 μL, 25,000 cells) were seeded onto OBSCs 2h after slicing, with one tumor seeded in the center of each hemisphere for a total of two tumor foci per OBSC. BSM was changed 24h after slicing. Fluorescence images were taken 0 h, 24 h, and 96 h post-seeding for normalization of tumor size. Bioluminescence readouts were also taken at 0 h, 24 h, and 96 h post seeding for assessment of cell viability. Luciferin was added underneath the culture insert and allowed to incubate for 10 min before bioluminescence measurement on an AMI optical imaging system.
# as §1
# Several weighted parameters were factored into an overall drug sensitivity score.
# (§4) For DSS parameters 1–6, therapeutic windows were calculated by comparing OBSC toxicity and tumor response at the doses where tumor kill passed through the DSS parameter (Table S1 and S3). For DSS parameter 7, the therapeutic window was calculated by comparing the slopes through the tumor EC50 and the OBSC tox EC50. For DSS parameter 8, the therapeutic window was calculated by comparing the areas under tumor kill and OBSC tox curves. Normalized therapeutic window ratios for DSS parameters 1–8 within each drug-tumor-OBSC interaction were calculated in the following manner: within each window, values ranged from +1 to −1, where values approaching +1 signify increasing tumor kill relative to normal tissue toxicity, and values approaching −1 indicate agents where tumors remained highly viable while toxicity to the normal OBSC tissue was elevated. DSS parameters 9–11 were determined based on the behavior of the tumor in response to the drug, as defined above.
# All individually weighed parameters were added together to generate the DSS. Overall DSS from 0 to 100 signify increasing efficacy in tumor kill relative to OBSC toxicity, while scores from 0 to −100 describe scenarios in which tumors thrive more effectively than OBSCs for a given treatment. Dose-response values were calculated via linear interpolation of raw data, not from best-fit curve equations.
# [3] = system: SE-I patient tumor tissue (WHO I subependymoma); assay: Drug screening of uncultured patient tumor tissue SE-I on OBSCs; assay type: cell-based; conditions: Homo sapiens; for EC90: dose required to kill 90% of the tumor
# Procedure: as §1
# (§5) To engraft onto OBSCs, the cryopreserved/thawed or fresh brain tumor tissue was filtered through a 100 μm cell strainer. Each 50 mg of tissue was transfected with 1mL mcherry-FLuc Lentivirus at 1.5e7 vg/ml with 1μL polybrene for 4h at 37°C. After incubation, the brain tumor tissue was washed with PBS three times to remove the residual virus and reconstituted in PBS with a final volume of 150 μL. […] The viability of the patient tissue was measured by an AMI optical imaging system with the addition of 1.5 mg/mL luciferin underneath the culture insert. […]
# as §4, with “DSS parameters 9–11 were determined based on the behavior of the tumor in response to the drug, as defined above.” left out
# [4] = system: MMG-II patient tumor tissue (WHO grade II meningioma, multiple tumors); assay: Drug screening of uncultured patient tumor tissue MMG-II on OBSCs; assay type: cell-based; conditions: Homo sapiens, dose required to kill 90% of the tumor
# Procedure: as §1, §5
# as §4, with “DSS parameters 9–11 were determined based on the behavior of the tumor in response to the drug, as defined above.” left out
# [5] = system: LBM patient tumor tissue (Stage III NSCLC adenocarcinoma); assay: Drug screening of uncultured patient tumor tissue LBM on OBSCs; assay type: cell-based; conditions: Homo sapiens; for EC90: dose required to kill 90% of the tumor
# Procedure: as §1, §5
# as §4, with “DSS parameters 9–11 were determined based on the behavior of the tumor in response to the drug, as defined above.” left out
# [6] = system: ODDG patient tumor tissue (WHO grade III oligodendroglioma); assay: Drug screening of uncultured patient tumor tissue ODDG on OBSCs; assay type: cell-based; conditions: Homo sapiens
# Procedure: as §1, §2, §3
# [7] = system: GBM-MG patient tumor tissue (GBM w/ WHO I meningioma); assay: Drug screening of uncultured patient tumor tissue GBM-MG on OBSCs; assay type: cell-based; conditions: Homo sapiens, dose required to kill 90% of the tumor
# Procedure: as §1, §2, §3
# [8] = dose required to kill 50% of the tumor
smiles,measurement,setting,value
Nc1ncn([C@@H]2O[C@H](CO)[C@@H](O)[C@H]2O)c(=O)n1 [Azacitidine],EC90,[1],> 10 µM
same,IC50,"[2]; Homo sapiens, read-out: IC50 values, range over the cell lines",200 to 400 µM
same,response / killing over the 7 cell lines,[2],7 of 7
same,EC90,[3],> 10 µM
N.N.O=C([O-])C1(C(=O)[O-])CCC1.[Pt+2] [Carboplatin],response / killing over the 7 cell lines,[2],robust response
COc1cc([C@@H]2c3cc4c(cc3[C@@H](O[C@@H]3O[C@@H]5CO[C@@H](C)O[C@H]5[C@H](O)[C@H]3O)[C@H]3COC(=O)[C@H]23)OCO4)cc(OC)c1O [Etoposide],response / killing over the 7 cell lines,[2],6 of 7
Nc1ccn([C@@H]2O[C@H](CO)[C@@H](O)C2(F)F)c(=O)n1 [Gemcitabine],EC90,[4],> 10 µM
O=NN(CCCl)C(=O)NC1CCCCC1 [Lomustine],EC90,[5],> 10 µM
same,response / killing over the 7 cell lines,[2],robust response
Cn1nnc2c(C(N)=O)ncn2c1=O [Temozolomide],EC90,[1],> 10 µM
same,EC50,[6]; [8],> 100 µM
same,EC90,[6]; dose required to kill 90% of the tumor,> 10 µM
same,EC50,[5]; [8],> 100 µM
same,EC90,[5],> 10 µM
same,"DSS scores, range among tumors",[2],−62 to 96
same,EC50,[3]; [8],> 100 µM
same,EC90,[3],> 10 µM
same,EC90,[7],> 10 µM
CC(=O)Nc1cccc(-n2c(=O)n(C3CC3)c(=O)c3c(Nc4ccc(I)cc4F)n(C)c(=O)c(C)c32)c1 [Trametinib],EC90,[4],> 10 µM
CC[C@]1(O)C[C@H]2CN(CCc3c([nH]c4ccccc34)[C@@](C(=O)OC)(c3cc4c(cc3OC)N(C=O)[C@H]3[C@@](O)(C(=O)OC)[C@H](OC(C)=O)[C@]5(CC)C=CCN6CC[C@]43[C@@H]65)C2)C1 [Vincristine],EC90,[4],> 10 µM
